This is an account of results in US20230257372A1 (CHONG KUN DANG PHARMACEUTICAL CORP., priority 2020, published 2023).

One assay concerns the target T1, human recombinant HDAC6 (Homo sapiens, UniProt Q9UBN7).
T1 construct: purchased Calbiochem Inc. 382180
T1 sequence (Q9UBN7 1-1215): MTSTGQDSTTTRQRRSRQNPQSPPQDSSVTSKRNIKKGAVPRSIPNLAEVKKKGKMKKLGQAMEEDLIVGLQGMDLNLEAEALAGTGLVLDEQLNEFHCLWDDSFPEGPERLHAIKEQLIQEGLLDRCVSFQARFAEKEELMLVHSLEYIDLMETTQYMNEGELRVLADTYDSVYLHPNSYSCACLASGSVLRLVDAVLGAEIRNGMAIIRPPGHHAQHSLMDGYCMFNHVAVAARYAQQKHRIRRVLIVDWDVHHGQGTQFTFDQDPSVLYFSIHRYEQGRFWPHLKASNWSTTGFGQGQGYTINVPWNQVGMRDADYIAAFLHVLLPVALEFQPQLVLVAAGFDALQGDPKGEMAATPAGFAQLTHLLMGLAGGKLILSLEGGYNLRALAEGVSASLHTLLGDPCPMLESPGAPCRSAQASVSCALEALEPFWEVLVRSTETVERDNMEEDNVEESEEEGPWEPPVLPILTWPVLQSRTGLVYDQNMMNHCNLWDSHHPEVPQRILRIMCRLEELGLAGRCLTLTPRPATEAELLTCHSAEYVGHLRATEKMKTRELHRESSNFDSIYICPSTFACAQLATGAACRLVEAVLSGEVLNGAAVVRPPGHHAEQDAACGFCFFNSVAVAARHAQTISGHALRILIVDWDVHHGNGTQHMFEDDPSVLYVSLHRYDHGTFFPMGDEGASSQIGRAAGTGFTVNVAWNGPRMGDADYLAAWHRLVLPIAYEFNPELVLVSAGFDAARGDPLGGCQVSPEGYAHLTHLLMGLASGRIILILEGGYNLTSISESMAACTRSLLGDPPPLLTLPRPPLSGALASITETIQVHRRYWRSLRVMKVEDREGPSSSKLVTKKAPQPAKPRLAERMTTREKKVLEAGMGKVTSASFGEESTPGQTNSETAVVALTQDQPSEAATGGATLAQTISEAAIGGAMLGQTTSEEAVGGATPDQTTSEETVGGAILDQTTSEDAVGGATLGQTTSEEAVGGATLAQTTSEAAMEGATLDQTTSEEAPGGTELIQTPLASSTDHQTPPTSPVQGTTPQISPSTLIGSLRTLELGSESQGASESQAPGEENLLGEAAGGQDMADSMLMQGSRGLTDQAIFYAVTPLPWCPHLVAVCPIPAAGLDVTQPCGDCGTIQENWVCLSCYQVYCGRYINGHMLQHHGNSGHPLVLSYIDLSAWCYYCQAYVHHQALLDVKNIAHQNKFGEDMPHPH
Briefly: HDAC6 enzyme activity inhibition (HDAC Fluorimetric Drug Discovery Kit). In kind it is biochemical. The method in brief:
(§1)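 Fluorescence from a Fluor de Lys developer step (30 minutes) reports residual deacetylation after a 60-minute, 30° C reaction of […] enzyme with 10 μM substrate and 5-fold compound dilutions.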

Another assay deals with T2, human recombinant HDAC1 (Homo sapiens, UniProt Q13547).
T2 construct: purchased Enzo Life Science, Inc. BML-SE456
T2 sequence (Q13547 whole entry): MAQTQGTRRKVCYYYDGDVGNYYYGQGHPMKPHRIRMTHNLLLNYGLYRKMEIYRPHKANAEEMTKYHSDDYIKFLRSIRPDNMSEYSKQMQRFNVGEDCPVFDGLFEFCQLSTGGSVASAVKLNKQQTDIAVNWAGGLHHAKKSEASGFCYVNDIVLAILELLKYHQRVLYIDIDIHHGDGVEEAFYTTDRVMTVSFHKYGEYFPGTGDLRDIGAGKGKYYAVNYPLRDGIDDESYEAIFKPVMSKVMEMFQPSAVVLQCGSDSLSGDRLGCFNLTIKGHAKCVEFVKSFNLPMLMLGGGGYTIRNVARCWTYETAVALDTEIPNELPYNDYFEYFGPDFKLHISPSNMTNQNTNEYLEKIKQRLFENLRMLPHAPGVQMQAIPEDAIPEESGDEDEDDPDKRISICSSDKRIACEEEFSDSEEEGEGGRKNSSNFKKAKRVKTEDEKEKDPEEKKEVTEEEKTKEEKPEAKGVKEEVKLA
Nature of the assay: HDAC1 enzyme activity inhibition (HDAC Fluorimetric Drug Discovery Kit). In kind it is biochemical. The following applies: read-out: HDAC1. The method in brief:
as §1

The mark [1] stands for this setting: human recombinant HDAC6, same protocol as HDAC1.
[2] abbreviates: human recombinant HDAC1, Fluor de Lys substrate, 30° C. 60 minutes.
Setting [3] is: human recombinant HDAC6, IC50 calculated with GraphPad Prism.
Setting [4] is: human recombinant HDAC1, IC50 calculated with GraphPad Prism.

Read-outs that look alike come from different tables or passages of the source.

`CC1CCN(Cc2ccc(-c3cn(Cc4ccc(-c5nnc(C(F)F)o5)cc4F)nn3)cn2)CC1` [Compound 18177, 2-(difluoromethyl)-5-(3-fluoro-4-((4-(6-((4-methylpiperidin-1-yl)methyl)pyridin-3-yl)-1H-1,2,3-triazol-1-yl)methyl)phenyl)-1,3,4-oxadiazole]: the “HDAC6 selectivity (fold)” value at human recombinant HDAC6 (HDAC6 over HDAC1) worked out at 784 fold. Besides, the IC50 on human recombinant HDAC6 (setting [1]) was 63.7 nM; on human recombinant HDAC1 (setting [2]) it was more than 50000 nM.

As for `CC(C)N1CCc2cc(-c3cn(Cc4ccc(-c5nnc(C(F)F)o5)cc4F)nn3)sc2C1` [Compound 4501], the “HDAC6 selectivity (fold)” value at human recombinant HDAC6 (HDAC6 over HDAC1) is on record as 365 fold. Besides, the IC50 on human recombinant HDAC6 (setting [1]) is 137 nM; on human recombinant HDAC1 (setting [2]) it was more than 50000 nM.

With `Cc1cncc(-c2cn(Cc3ccc(-c4nnc(C(F)F)o4)cn3)nn2)c1` [Compound 3884, 2-(difluoromethyl)-5-(6-((4-(5-methylpyridin-3-yl)-1H-1,2,3-triazol-1-yl)methyl)pyridin-3-yl)-1,3,4-oxadiazole], the “HDAC6 selectivity (fold)” value on human recombinant HDAC6 (HDAC1 IC50 / HDAC6 IC50) worked out at 1329 fold. In addition, the IC50 on human recombinant HDAC6 (setting [3]) is 37.6 nM; on human recombinant HDAC1 (setting [4]) it was more than 50000 nM.

In the case of `CN(C)C1CCN(Cc2ccc(-c3cn(Cc4ccc(-c5nnc(C(F)F)o5)cc4)nn3)cc2)CC1` [Compound 4554, 1-(4-(1-(4-(5-(difluoromethyl)-1,3,4-oxadiazol-2-yl)benzyl)-1H-1,2,3-triazol-4-yl)benzyl)-N,N-dimethylpiperidin-4-amine], the “HDAC6 selectivity (fold)” value on human recombinant HDAC6 (HDAC6 over HDAC1) is reported as 773 fold. The IC50 on human recombinant HDAC6 (setting [1]) is 64.6 nM; on human recombinant HDAC1 (setting [2]), more than 50000 nM.

For `CC(C)(C)OC(=O)N1CCC(c2cn(Cc3ccc(-c4nnc(C(F)F)o4)cc3F)nn2)C1` (stereo not drawn) [Compound 3734, Tert-butyl 3-(1-(4-(5-(difluoromethyl)-1,3,4-oxadiazol-2-yl)-2-fluorobenzyl)-1H-1,2,3-triazol-4-yl)pyrrolidin-1-carboxylate], the “HDAC6 selectivity (fold)” value at human recombinant HDAC6 (HDAC1 IC50 / HDAC6 IC50) worked out at 500 fold. Also, the IC50 on human recombinant HDAC6 (setting [3]) is 244 nM; at human recombinant HDAC1 (setting [4]) it was more than 50000 nM.

As for `CC(C)(C)OC(=O)N1CCC(F)(c2cn(Cc3ccc(-c4nnc(C(F)F)o4)cn3)nn2)CC1` [Compound 3999, Tert-butyl 4-(1-((5-(5-(difluoromethyl)-1,3,4-oxadiazol-2-yl)pyridin-2-yl)methyl)-1H-1,2,3-triazol-4-yl)-4-fluoropiperidin-1-carboxylate], the “HDAC6 selectivity (fold)” value on human recombinant HDAC6 (HDAC1 IC50 / HDAC6 IC50) came out at 575 fold. In addition, the IC50 is 86.9 nM on human recombinant HDAC6 (setting [3]) and more than 50000 nM on human recombinant HDAC1 (setting [4]).

Regarding `CN1CCC(Nc2ccc(F)c(-c3cn(Cc4ccc(-c5nnc(C(F)F)o5)cc4F)nn3)c2)CC1` [Compound 4435, N-(3-(1-(4-(5-(difluoromethyl)-1,3,4-oxadiazol-2-yl)-2-fluorobenzyl)-1H-1,2,3-triazol-4-yl)-4-fluorophenyl)-1-methylpiperidin-4-amine], on human recombinant HDAC6 (HDAC1 IC50 / HDAC6 IC50), the “HDAC6 selectivity (fold)” value amounted to 1677 fold. For the same compound, the IC50 is 29.8 nM at human recombinant HDAC6 (setting [3]) and more than 50000 nM on human recombinant HDAC1 (setting [4]).

With `FC(F)c1nnc(-c2ccc(Cn3cc(-c4cccnc4)nn3)nc2)o1` [Compound 3835, 2-(difluoromethyl)-5-(6-((4-(pyridin-3-yl)-1H-1,2,3-triazol-1-yl)methyl)pyridin-3-yl)-1,3,4-oxadiazole], the “HDAC6 selectivity (fold)” value on human recombinant HDAC6 (HDAC1 IC50 / HDAC6 IC50) is 1170 fold. Also, the results for the IC50 on human recombinant HDAC6 (setting [3]) and on human recombinant HDAC1 (setting [4]) were 42.7 nM and more than 50000 nM, respectively.

With `Fc1cc(-c2nnc(C(F)F)o2)ccc1Cn1cc(-c2ccc3c(c2)CCN(C2CN(C4CCC4)C2)C3)nn1` [Compound 4394, 2-(4-((4-(2-(1-cyclobutylazetidin-3-yl)-1,2,3,4-tetrahydroisoquinolin-6-yl)-1H-1,2,3-triazol-1-yl)methyl)-3-fluorophenyl)-5-(difluoromethyl)-1,3,4-oxadiazole], the “HDAC6 selectivity (fold)” value on human recombinant HDAC6 (HDAC1 IC50 / HDAC6 IC50) is reported as 706 fold. Besides, the IC50 is 70.8 nM on human recombinant HDAC6 (setting [3]) and more than 50000 nM at human recombinant HDAC1 (setting [4]).

Turning to `CN1CCc2cc(-c3cn(Cc4ccc(-c5nnc(C(F)F)o5)cc4F)nn3)ccc2C1` [Compound 4358, 2-(difluoromethyl)-5-(3-fluoro-4-((4-(2-methyl-1,2,3,4-tetrahydroisoquinolin-6-yl)-1H-1,2,3-triazol-1-yl)methyl)phenyl)-1,3,4-oxadiazole], at human recombinant HDAC6 (HDAC1 IC50 / HDAC6 IC50), the “HDAC6 selectivity (fold)” value is reported as 1515 fold. Further, the values for the IC50 on human recombinant HDAC6 (setting [3]) and at human recombinant HDAC1 (setting [4]) were 33 nM and more than 50000 nM, respectively.

For `CN(C)Cc1ccc(-c2cn(Cc3ncc(-c4nnc(C(F)F)o4)cc3F)nn2)cc1Cl` [Compound 19094, 1-(2-chloro-4-(1-((5-(5-(difluoromethyl)-1,3,4-oxadiazol-2-yl)-3-fluoropyridin-2-yl)methyl)-1H-1,2,3-triazol-4-yl)phenyl)-N,N-dimethylmethanamine], the “HDAC6 selectivity (fold)” value on human recombinant HDAC6 (HDAC6 over HDAC1) was 510 fold. In addition, the IC50 at human recombinant HDAC6 (setting [1]) is 98 nM; on human recombinant HDAC1 (setting [2]), more than 50000 nM.

As to `FC(F)c1nnc(-c2ccc(Cn3cc(-c4ccc(CN5CCCC5)cc4)nn3)cc2)o1` [Compound 4550, 2-(difluoromethyl)-5-(4-((4-(4-(pyrrolidin-1-ylmethyl)phenyl)-1H-1,2,3-triazol-1-yl)methyl)phenyl)-1,3,4-oxadiazole], the “HDAC6 selectivity (fold)” value on human recombinant HDAC6 (HDAC6 over HDAC1) is 2762 fold. For the same compound, the IC50 at human recombinant HDAC6 (setting [1]) was 18.1 nM; on human recombinant HDAC1 (setting [2]), more than 50000 nM.

For `Fc1cc(-c2nnc(C(F)F)o2)ccc1Cn1cc(-c2ccc3c(c2)CN(CC2(F)CC2)C3)nn1` [Compound 17460, 2-(difluoromethyl)-5-(3-fluoro-4-((4-(2-((1-fluorocyclopropyl)methyl)isoindolin-5-yl)-1H-1,2,3-triazol-1-yl)methyl)phenyl)-1,3,4-oxadiazole], the “HDAC6 selectivity (fold)” value on human recombinant HDAC6 (HDAC6 over HDAC1) is 572 fold. The IC50 on human recombinant HDAC6 (setting [1]) is 87.4 nM; at human recombinant HDAC1 (setting [2]), more than 50000 nM.

On to `Fc1cc(-c2nnc(C(F)F)o2)ccc1Cn1cc(-c2csc(CN3CC[C@@H](F)C3)c2)nn1` [Compound 18180, (R)-2-(difluoromethyl)-5-(3-fluoro-4-((4-(5-((3-fluoropyrrolidin-1-yl)methyl)thiophen-3-yl)-1H-1,2,3-triazol-1-yl)methyl)phenyl)-1,3,4-oxadiazole], for which, on human recombinant HDAC6 (HDAC6 over HDAC1), the “HDAC6 selectivity (fold)” value turned out to be 672 fold. For the same compound, the IC50 at human recombinant HDAC6 (setting [1]) was 74.3 nM; at human recombinant HDAC1 (setting [2]) it was more than 50000 nM.

With `FC(F)c1nnc(-c2ccc(Cn3cnc(-c4ccccc4)c3)nc2)o1` [Compound 3950, 2-(difluoromethyl)-5-(6-((4-phenyl-1H-imidazol-1-yl)methyl)pyridin-3-yl)-1,3,4-oxadiazole], the “HDAC6 selectivity (fold)” value on human recombinant HDAC6 (HDAC1 IC50 / HDAC6 IC50) was determined as 954 fold. Further, the results for the IC50 at human recombinant HDAC6 (setting [3]) and at human recombinant HDAC1 (setting [4]) were 52.4 nM and more than 50000 nM, respectively.

As to `CN(C)Cc1cc(-c2cn(Cc3ccc(-c4nnc(C(F)F)o4)cc3F)nn2)cs1` [Compound 18188, 1-(4-(1-(4-(5-(difluoromethyl)-1,3,4-oxadiazol-2-yl)-2-fluorobenzyl)-1H-1,2,3-triazol-4-yl)thiophen-2-yl)-N,N-dimethylmethanamine], the “HDAC6 selectivity (fold)” value on human recombinant HDAC6 (HDAC6 over HDAC1) is recorded as 668 fold. The IC50 at human recombinant HDAC6 (setting [1]) is 74.8 nM; on human recombinant HDAC1 (setting [2]), more than 50000 nM.

Regarding `Fc1cc(-c2nnc(C(F)F)o2)ccc1Cn1cc(-c2cccc(N3C[C@@H]4C[C@H]3CN4C3CCC3)c2)nn1` [Compound 4319, 2-(4-((4-(3-((1S, 4S)-5-cyclobutyl-2,5-diazabicyclo[2.2.1]heptan-2-yl)phenyl)-1H-1,2,3-triazol-1-yl)methyl)-3-fluorophenyl)-5-(difluoromethyl)-1,3,4-oxadiazole], on human recombinant HDAC6 (HDAC1 IC50 / HDAC6 IC50), the “HDAC6 selectivity (fold)” value is listed as 1470 fold. Further, the IC50 at human recombinant HDAC6 (setting [3]) was 34 nM; on human recombinant HDAC1 (setting [4]), more than 50000 nM.

As to `Fc1cc(-c2nnc(C(F)F)o2)ccc1Cn1cc(-c2ccc(CN3CCC3)c(Cl)c2)nn1` [Compound 18712], at human recombinant HDAC6 (HDAC6 over HDAC1), the “HDAC6 selectivity (fold)” value worked out at 1146 fold. The figures for the IC50 on human recombinant HDAC6 (setting [1]) and on human recombinant HDAC1 (setting [2]) were 43.6 nM and more than 50000 nM, respectively.

As for `O=C(O)c1ccc(-c2cn(Cc3ccc(-c4nnc(C(F)F)o4)cc3F)nn2)cc1` [Compound 3732, 4-(1-(4-(5-(difluoromethyl)-1,3,4-oxadiazol-2-yl)-2-fluorobenzyl)-1H-1,2,3-triazol-4-yl)benzoic acid], the “HDAC6 selectivity (fold)” value at human recombinant HDAC6 (HDAC1 IC50 / HDAC6 IC50) was 74 fold. In addition, the IC50 is 672 nM on human recombinant HDAC6 (setting [3]) and more than 50000 nM on human recombinant HDAC1 (setting [4]).
